The supplement of paper PMC10307832

Key:
Assay in all cases: relative viability (nuclei count vs DMSO), 5 days (fraction); higher = more cells survive
[1] = compound: CC(C)=CC[C@@H](O)C1=CC(=O)c2c(O)ccc(O)c2C1=O [Shikonin] + CC(C)C[C@H](NC(=O)[C@H](Cc1ccccc1)NC(=O)c1cnccn1)B(O)O [Bortezomib] (partner 0.002 µM)
Outline: (§1)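 Dosing by pin tool came one day after lung cancer cell lines were seeded in 1536-well plates, using either one drug or a fixed anchor-drug dose plus five library-drug doses (not always all listed) in √10 steps. After 5 days, nuclei were counted on 4× images. Relative viability is treated-well nuclei count divided by vehicle-well nuclei count, and values are medians of duplicate plates.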

[2] = compound: CC(C)N(CCCNC(=O)Nc1ccc(C(C)(C)C)cc1)C[C@H]1O[C@@H](n2ccc3c(N)ncnc32)[C@H](O)[C@@H]1O + Cc1nc(Nc2ncc(C(=O)Nc3c(C)cccc3Cl)s2)cc(N2CCN(CCO)CC2)n1 [Dasatinib] (partner 0.075 µM)
Outline: as §1

[3] = compound: CC(C)=CC[C@@H](O)C1=CC(=O)c2c(O)ccc(O)c2C1=O [Shikonin] + C[C@]1(O)C[C@@H](c2nc(-c3ccc4ccc(-c5ccccc5)nc4c3)c3c(N)nccn32)C1 [Linsitinib] (partner 1 µM)
Outline: as §1

[4] = compound: CC(C)N(CCCNC(=O)Nc1ccc(C(C)(C)C)cc1)C[C@H]1O[C@@H](n2ccc3c(N)ncnc32)[C@H](O)[C@@H]1O + CC(=O)c1c(C)c2cnc(Nc3ccc(N4CCNCC4)cn3)nc2n(C2CCCC2)c1=O [Palbociclib] (partner 0.5 µM)
Outline: as §1

## HOP-62
[1]; first compound 0.01 µM
  relative viability: 0.958
[1]; first compound 0.1 µM
  relative viability: 0.715
[1]; first compound 0.3162 µM
  relative viability: 0.875
[1]; first compound 1 µM
  relative viability: 0.902
[2]; first compound 0.08 µM
  relative viability: 0.629
[2]; first compound 0.253 µM
  relative viability: 0.615
[2]; first compound 0.8 µM
  relative viability: 0.54
[2]; first compound 2.53 µM
  relative viability: 0.577
[2]; first compound 8 µM
  relative viability: 0.604
[3]; first compound 0.01 µM
  relative viability: 0.994
[3]; first compound 0.1 µM
  relative viability: 0.806
[3]; first compound 0.3162 µM
  relative viability: 0.987
[3]; first compound 1 µM
  relative viability: 0.807
[4]; first compound 0.08 µM
  relative viability: 0.46
[4]; first compound 0.253 µM
  relative viability: 0.37
[4]; first compound 0.8 µM
  relative viability: 0.356
[4]; first compound 2.53 µM
  relative viability: 0.361
[4]; first compound 8 µM
  relative viability: 0.371

## LC-2-ad
[1]; first compound 0.01 µM
  relative viability: 1.08
[1]; first compound 0.1 µM
  relative viability: 1.05
[1]; first compound 0.3162 µM
  relative viability: 1.07
[1]; first compound 1 µM
  relative viability: 1.02
[2]; first compound 0.08 µM
  relative viability: 0.528
[2]; first compound 0.253 µM
  relative viability: 0.569
[2]; first compound 0.8 µM
  relative viability: 0.527
[2]; first compound 2.53 µM
  relative viability: 0.502
[2]; first compound 8 µM
  relative viability: 0.632
[3]; first compound 0.01 µM
  relative viability: 0.769
[3]; first compound 0.1 µM
  relative viability: 0.884
[3]; first compound 0.3162 µM
  relative viability: 0.833
[3]; first compound 1 µM
  relative viability: 0.812
[4]; first compound 0.08 µM
  relative viability: 0.496
[4]; first compound 0.253 µM
  relative viability: 0.463
[4]; first compound 0.8 µM
  relative viability: 0.495
[4]; first compound 2.53 µM
  relative viability: 0.51
[4]; first compound 8 µM
  relative viability: 0.484

## LCLC-97TM1
[1]; first compound 0.01 µM
  relative viability: 0.331
[1]; first compound 0.1 µM
  relative viability: 0.721
[1]; first compound 0.3162 µM
  relative viability: 0.814
[1]; first compound 1 µM
  relative viability: 0.631
[2]; first compound 0.08 µM
  relative viability: 0.897
[2]; first compound 0.253 µM
  relative viability: 0.783
[2]; first compound 0.8 µM
  relative viability: 0.933
[2]; first compound 2.53 µM
  relative viability: 0.822
[2]; first compound 8 µM
  relative viability: 0.82
[3]; first compound 0.01 µM
  relative viability: 0.175
[3]; first compound 0.1 µM
  relative viability: 0.176
[3]; first compound 0.3162 µM
  relative viability: 0.173
[3]; first compound 1 µM
  relative viability: 0.162
[4]; first compound 0.08 µM
  relative viability: 0.195
[4]; first compound 0.253 µM
  relative viability: 0.247
[4]; first compound 0.8 µM
  relative viability: 0.218
[4]; first compound 2.53 µM
  relative viability: 0.236
[4]; first compound 8 µM
  relative viability: 0.252

## LCLC-103H
[1]; first compound 0.01 µM
  relative viability: 1.12
[1]; first compound 0.1 µM
  relative viability: 1.12
[1]; first compound 0.3162 µM
  relative viability: 1.07
[1]; first compound 1 µM
  relative viability: 1.25
[2]; first compound 0.08 µM
  relative viability: 0.435
[2]; first compound 0.253 µM
  relative viability: 0.424
[2]; first compound 0.8 µM
  relative viability: 0.449
[2]; first compound 2.53 µM
  relative viability: 0.428
[2]; first compound 8 µM
  relative viability: 0.443
[3]; first compound 0.01 µM
  relative viability: 1.03
[3]; first compound 0.1 µM
  relative viability: 1.21
[3]; first compound 0.3162 µM
  relative viability: 1.26
[3]; first compound 1 µM
  relative viability: 1.23
[4]; first compound 0.08 µM
  relative viability: 0.488
[4]; first compound 0.253 µM
  relative viability: 0.47
[4]; first compound 0.8 µM
  relative viability: 0.438
[4]; first compound 2.53 µM
  relative viability: 0.482
[4]; first compound 8 µM
  relative viability: 0.459

## LOU-NH91
[1]; first compound 0.01 µM
  relative viability: 0.533
[1]; first compound 0.1 µM
  relative viability: 0.469
[1]; first compound 0.3162 µM
  relative viability: 0.445
[1]; first compound 1 µM
  relative viability: 0.535
[2]; first compound 0.08 µM
  relative viability: 0.572
[2]; first compound 0.253 µM
  relative viability: 0.579
[2]; first compound 0.8 µM
  relative viability: 0.485
[2]; first compound 2.53 µM
  relative viability: 0.553
[2]; first compound 8 µM
  relative viability: 0.529
[3]; first compound 0.01 µM
  relative viability: 0.904
[3]; first compound 0.1 µM
  relative viability: 0.999
[3]; first compound 0.3162 µM
  relative viability: 1.06
[3]; first compound 1 µM
  relative viability: 0.974
[4]; first compound 0.08 µM
  relative viability: 0.538
[4]; first compound 0.253 µM
  relative viability: 0.503
[4]; first compound 2.53 µM
  relative viability: 0.53
[4]; first compound 8 µM
  relative viability: 0.611

## LU99A
[1]; first compound 0.01 µM
  relative viability: 1.21
[1]; first compound 0.1 µM
  relative viability: 1.33
[1]; first compound 0.3162 µM
  relative viability: 1.09
[1]; first compound 1 µM
  relative viability: 1.03
[2]; first compound 0.08 µM
  relative viability: 0.477
[2]; first compound 0.253 µM
  relative viability: 0.381
[2]; first compound 0.8 µM
  relative viability: 0.679
[2]; first compound 2.53 µM
  relative viability: 0.597
[2]; first compound 8 µM
  relative viability: 0.479
[3]; first compound 0.01 µM
  relative viability: 0.573
[3]; first compound 0.1 µM
  relative viability: 0.522
[3]; first compound 0.3162 µM
  relative viability: 0.525
[3]; first compound 1 µM
  relative viability: 0.536
[4]; first compound 0.08 µM
  relative viability: 0.399
[4]; first compound 0.253 µM
  relative viability: 0.387
[4]; first compound 0.8 µM
  relative viability: 0.436
[4]; first compound 2.53 µM
  relative viability: 0.427
[4]; first compound 8 µM
  relative viability: 0.405

## LXF-289
[1]; first compound 0.01 µM
  relative viability: 1.1
[1]; first compound 0.1 µM
  relative viability: 1.03
[1]; first compound 0.3162 µM
  relative viability: 1
[1]; first compound 1 µM
  relative viability: 1.04
[2]; first compound 0.08 µM
  relative viability: 0.281
[2]; first compound 0.253 µM
  relative viability: 0.271
[2]; first compound 0.8 µM
  relative viability: 0.231
[2]; first compound 2.53 µM
  relative viability: 0.186
[2]; first compound 8 µM
  relative viability: 0.229
[3]; first compound 0.01 µM
  relative viability: 1.07
[3]; first compound 0.1 µM
  relative viability: 0.911
[3]; first compound 0.3162 µM
  relative viability: 1
[3]; first compound 1 µM
  relative viability: 0.996
[4]; first compound 0.08 µM
  relative viability: 0.705
[4]; first compound 0.253 µM
  relative viability: 0.591
[4]; first compound 0.8 µM
  relative viability: 0.6
[4]; first compound 2.53 µM
  relative viability: 0.656
[4]; first compound 8 µM
  relative viability: 0.652

## NCI-H23
[1]; first compound 0.01 µM
  relative viability: 1.11
[1]; first compound 0.1 µM
  relative viability: 0.953
[1]; first compound 0.3162 µM
  relative viability: 1.13
[1]; first compound 1 µM
  relative viability: 1.13
[2]; first compound 0.08 µM
  relative viability: 0.685
[2]; first compound 0.253 µM
  relative viability: 0.645
[2]; first compound 0.8 µM
  relative viability: 0.716
[2]; first compound 2.53 µM
  relative viability: 0.798
[2]; first compound 8 µM
  relative viability: 0.725
[3]; first compound 0.01 µM
  relative viability: 0.592
[3]; first compound 0.1 µM
  relative viability: 0.489
[3]; first compound 0.3162 µM
  relative viability: 0.696
[3]; first compound 1 µM
  relative viability: 0.533
[4]; first compound 0.08 µM
  relative viability: 0.517
[4]; first compound 0.8 µM
  relative viability: 0.506
[4]; first compound 2.53 µM
  relative viability: 0.48
[4]; first compound 8 µM
  relative viability: 0.446

## NCI-H322M
[1]; first compound 0.01 µM
  relative viability: 1.14
[1]; first compound 0.1 µM
  relative viability: 1.32
[1]; first compound 0.3162 µM
  relative viability: 1.26
[1]; first compound 1 µM
  relative viability: 1.33
[2]; first compound 0.08 µM
  relative viability: 0.278
[2]; first compound 0.253 µM
  relative viability: 0.266
[2]; first compound 0.8 µM
  relative viability: 0.264
[2]; first compound 2.53 µM
  relative viability: 0.24
[2]; first compound 8 µM
  relative viability: 0.284
[3]; first compound 0.01 µM
  relative viability: 0.919
[3]; first compound 0.1 µM
  relative viability: 0.837
[3]; first compound 0.3162 µM
  relative viability: 0.993
[3]; first compound 1 µM
  relative viability: 1.13
[4]; first compound 0.08 µM
  relative viability: 0.481
[4]; first compound 0.253 µM
  relative viability: 0.488
[4]; first compound 0.8 µM
  relative viability: 0.494
[4]; first compound 2.53 µM
  relative viability: 0.489
[4]; first compound 8 µM
  relative viability: 0.532
